# Laboratory results reported in the supplement of paper PMC10307832.
# How the values were obtained:
# Test in all cases: relative viability (nuclei count vs DMSO), 5 days (fraction); higher = more cells survive
# AZD5582 + Bortezomib = compound: C[C@@H](C(=O)N[C@@H](C1CCCCC1)C(=O)N2CCC[C@H]2C(=O)N[C@@H]3[C@@H](CC4=CC=CC=C34)OCC#CC#CCO[C@@H]5CC6=CC=CC=C6[C@@H]5NC(=O)[C@@H]7CCCN7C(=O)[C@H](C8CCCCC8)NC(=O)[C@H](C)NC)NC [AZD5582] + CC(C)C[C@H](NC(=O)[C@H](Cc1ccccc1)NC(=O)c1cnccn1)B(O)O [Bortezomib] (partner 0.002 µM)
# Method in brief: (§1)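 Lung cancer cell lines were pin-tool dosed in 1536-well plates on the day after seeding, with either a lone drug or a fixed anchor-drug dose plus five library-drug doses (not always all listed) in √10 steps. Nuclei were counted on 4× images after 5 days. Relative viability is the ratio of treated-well to vehicle-well nuclei counts, with each value a median of duplicate plates.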
# AZD5582 + Foretinib = compound: C[C@@H](C(=O)N[C@@H](C1CCCCC1)C(=O)N2CCC[C@H]2C(=O)N[C@@H]3[C@@H](CC4=CC=CC=C34)OCC#CC#CCO[C@@H]5CC6=CC=CC=C6[C@@H]5NC(=O)[C@@H]7CCCN7C(=O)[C@H](C8CCCCC8)NC(=O)[C@H](C)NC)NC [AZD5582] + COc1cc2c(Oc3ccc(NC(=O)C4(C(=O)Nc5ccc(F)cc5)CC4)cc3F)ccnc2cc1OCCCN1CCOCC1 [Foretinib] (partner 0.25 µM)
# Method in brief: as §1
# AZD5582 + Pictilisib = compound: C[C@@H](C(=O)N[C@@H](C1CCCCC1)C(=O)N2CCC[C@H]2C(=O)N[C@@H]3[C@@H](CC4=CC=CC=C34)OCC#CC#CCO[C@@H]5CC6=CC=CC=C6[C@@H]5NC(=O)[C@@H]7CCCN7C(=O)[C@H](C8CCCCC8)NC(=O)[C@H](C)NC)NC [AZD5582] + CS(=O)(=O)N1CCN(Cc2cc3nc(-c4cccc5[nH]ncc45)nc(N4CCOCC4)c3s2)CC1 [Pictilisib] (partner 1 µM)
# Method in brief: as §1
# AZD5582 + Olaparib = compound: C[C@@H](C(=O)N[C@@H](C1CCCCC1)C(=O)N2CCC[C@H]2C(=O)N[C@@H]3[C@@H](CC4=CC=CC=C34)OCC#CC#CCO[C@@H]5CC6=CC=CC=C6[C@@H]5NC(=O)[C@@H]7CCCN7C(=O)[C@H](C8CCCCC8)NC(=O)[C@H](C)NC)NC [AZD5582] + O=C(c1cc(Cc2n[nH]c(=O)c3ccccc23)ccc1F)N1CCN(C(=O)C2CC2)CC1 [Olaparib] (partner 8 µM)
# Method in brief: as §1
# [1] = compound: Cn1nnc2c(C(N)=O)ncn2c1=O [Temozolomide] + C[C@@H](Oc1cc(-c2cnn(C3CCNCC3)c2)cnc1N)c1c(Cl)ccc(F)c1Cl [Crizotinib] (partner 1 µM)
# Method in brief: as §1
cell line,measurement,setting,value
NCI-H1703,relative viability,AZD5582 + Bortezomib; first compound 0.001581 µM,0.228
same,relative viability,AZD5582 + Bortezomib; first compound 0.005 µM,0.277
same,relative viability,AZD5582 + Bortezomib; first compound 0.01581 µM,0.43
same,relative viability,AZD5582 + Bortezomib; first compound 0.05 µM,0.2
same,relative viability,AZD5582 + Foretinib; first compound 0.005 µM,0.412
same,relative viability,AZD5582 + Foretinib; first compound 0.01581 µM,0.376
same,relative viability,AZD5582 + Foretinib; first compound 0.05 µM,0.372
same,relative viability,AZD5582 + Pictilisib; first compound 0.005 µM,0.255
same,relative viability,AZD5582 + Pictilisib; first compound 0.01581 µM,0.291
same,relative viability,AZD5582 + Pictilisib; first compound 0.05 µM,0.251
same,relative viability,AZD5582 + Olaparib; first compound 0.005 µM,0.413
same,relative viability,AZD5582 + Olaparib; first compound 0.01581 µM,0.487
same,relative viability,AZD5582 + Olaparib; first compound 0.05 µM,0.54
same,relative viability,[1]; first compound 0.2 µM,0.746
same,relative viability,[1]; first compound 0.6325 µM,0.648
same,relative viability,[1]; first compound 2 µM,0.876
same,relative viability,[1]; first compound 6.325 µM,0.8
same,relative viability,[1]; first compound 20 µM,0.846
